Test results as given in publication PMC9574867, “Discovery and Characterization of Synthesized and FDA-Approved Inhibitors of Clostridial and Bacillary Collagenases” (Journal of Medicinal Chemistry, 2022).
Converted amounts (≈) assume the structure as drawn. Like-named read-outs stand apart in the source and are kept apart here.

What was measured:
[1] = tested on: B. cereus AH187 infection; type: in vivo, Galleria mellonella; conditions: for Survival of infected larvae vs control without inhibitor: 37 °C, 3 days
in vitro [2] = conditions: human, NHDF cells (normal human dermal fibroblasts)
ColA-CU = ColA-CU (Bacillus cereus, UniProt Q81BJ6); experiment: biochemical; type: biochemical, B. cereus strain ATCC14579; conditions: 100 μM; read-out: Percent inhibition of ColA-CU
in vitro [3] = conditions: human, HepG2 cells (hepatocellular carcinoma)
ColQ1-FL = ColQ1-FL (Bacillus cereus, UniProt B9J3S4); type: biochemical; conditions: SDS-PAGE
MMP-1 = target: T1, MMP-1 (Homo sapiens, UniProt P03956); experiment: MMP inhibition assay, MMP-1; type: biochemical
T1 construct: catalytic domains of three human MMPs; purchased Sigma-Aldrich
T1 sequence (P03956 98-276 limits assumed): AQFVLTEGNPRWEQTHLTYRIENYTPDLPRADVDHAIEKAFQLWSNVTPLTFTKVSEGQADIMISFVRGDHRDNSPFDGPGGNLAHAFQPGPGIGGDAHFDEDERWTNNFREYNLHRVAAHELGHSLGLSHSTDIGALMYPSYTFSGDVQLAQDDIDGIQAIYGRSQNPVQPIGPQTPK
Summary of the method: (§1)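 Catalytic domains of human MMPs were tested with a commercial fluorescence MMP inhibition kit following the manufacturer's protocol. Compounds were assayed at 100 μM.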

[4] = tested on: NHDF cells infected with B. cereus; experiment: NHDF infection model, cell morphology/attachment and fibrillar collagen (picrosirius red); type: cell-based, human; conditions: B. cereus infection, 5 h
[5] = tested on: NHDF cells infected with B. cereus; experiment: NHDF infection model, LDH release; type: cell-based, human; conditions: 5 h
Experimental: We further evaluated the effect of the diphosphonate and hydroxamate compounds on cell morphology, the fibrillar collagen content of the ECM, and cell viability in the infection model. […] Above a concentration of 25 μM, they were both able to sustain the cells during infection. The cells stayed attached and maintained their spindle shape (Figures S7 and S8), and above 50 μM, we observed a significant reduction in LDH release, indicating higher cell viability.
NHDF cells (1 × 10^5, Promo Cell C-12302) per well were seeded in 24-well plates (Greiner) with DMEM medium (Gibco) containing 10% (v/v) fetal calf serum (FCS, Gibco) and 1% (v/v) glutamine (Gibco). Prior to the treatment, the cells were cultured at 37 °C for 24 h with 5% CO2. In brain heart infusion (BHI) medium, B. cereus AH187 bacteria were cultivated to a mid-exponential phase. The culture was centrifuged at 4000g for 7 min at RT before being rinsed and diluted in PBS. […] The cell morphology was monitored with a light microscope (Olympus) using a 20X objective. […]
The manufacturer’s procedure was followed to measure the released LDH amount in the supernatant of NHDF cells. […] The absorbance was measured at 490 nm with a Tecan Infinite M200 plate reader (Tecan, Grödig, Austria). The cytotoxicity was calculated relative to the control (no inhibitor).

MMP-3 = target: T2, MMP-3 (Homo sapiens, UniProt P08254); experiment: MMP inhibition assay, MMP-3; type: biochemical
T2 construct: catalytic domains of three human MMPs; purchased Sigma-Aldrich
Summary of the method: as §1

TACE (ADAM-17) = TACE (ADAM-17) (Homo sapiens, UniProt P78536); experiment: Human off-target inhibition, TACE; type: biochemical
B. cereus AH187 = experiment: B. cereus growth inhibition assay; type: cell-based; conditions: Bacillus cereus, AH187; BHI medium, 37 °C, 48 h, 200–3 μM; read-out: MIC50 (µM) AH187
ColQ1-CU = ColQ1-CU (Bacillus cereus, UniProt B9J3S4); experiment: biochemical; set-up: species or system B. cereus strain Q1
[6] = tested on: B. cereus collagenases released in the NHDF infection model; type: cell-based, B. cereus AH187
ColH-PD = ColH-PD (Hathewaya histolytica, UniProt Q46085); experiment: biochemical; type: biochemical, C. histolyticum; conditions: 100 μM; read-out: Percent inhibition of ColH-PD
[7] = tested on: MDCK II cells infected with B. cereus AH187; type: cell-based, canine
ColG-CU = ColG-CU (Hathewaya histolytica, UniProt Q9X721); experiment: biochemical; type: biochemical, C. histolyticum; conditions: 100 μM; read-out: Percent inhibition of ColG-CU
Chain of ColG-CU (Q9X721 111-786): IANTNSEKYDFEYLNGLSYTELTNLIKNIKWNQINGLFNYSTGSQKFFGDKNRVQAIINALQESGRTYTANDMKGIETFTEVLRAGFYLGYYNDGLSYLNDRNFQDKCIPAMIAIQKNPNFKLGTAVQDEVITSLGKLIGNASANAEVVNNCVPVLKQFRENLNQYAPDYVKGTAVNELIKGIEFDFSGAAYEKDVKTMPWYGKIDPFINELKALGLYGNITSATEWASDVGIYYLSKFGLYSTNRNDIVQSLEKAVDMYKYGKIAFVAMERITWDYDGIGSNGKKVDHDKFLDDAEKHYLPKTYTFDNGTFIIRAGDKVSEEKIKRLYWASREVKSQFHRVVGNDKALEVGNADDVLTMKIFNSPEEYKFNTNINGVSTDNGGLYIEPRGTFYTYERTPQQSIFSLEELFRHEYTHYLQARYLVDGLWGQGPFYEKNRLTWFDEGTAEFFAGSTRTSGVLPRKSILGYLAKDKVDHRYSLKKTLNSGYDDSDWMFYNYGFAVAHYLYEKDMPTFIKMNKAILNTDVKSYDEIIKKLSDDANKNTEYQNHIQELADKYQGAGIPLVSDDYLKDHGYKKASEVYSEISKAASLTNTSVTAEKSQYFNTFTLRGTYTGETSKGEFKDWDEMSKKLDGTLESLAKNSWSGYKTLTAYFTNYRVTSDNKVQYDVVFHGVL

Chain of ColQ1-CU (B9J3S4 94-765 limits assumed): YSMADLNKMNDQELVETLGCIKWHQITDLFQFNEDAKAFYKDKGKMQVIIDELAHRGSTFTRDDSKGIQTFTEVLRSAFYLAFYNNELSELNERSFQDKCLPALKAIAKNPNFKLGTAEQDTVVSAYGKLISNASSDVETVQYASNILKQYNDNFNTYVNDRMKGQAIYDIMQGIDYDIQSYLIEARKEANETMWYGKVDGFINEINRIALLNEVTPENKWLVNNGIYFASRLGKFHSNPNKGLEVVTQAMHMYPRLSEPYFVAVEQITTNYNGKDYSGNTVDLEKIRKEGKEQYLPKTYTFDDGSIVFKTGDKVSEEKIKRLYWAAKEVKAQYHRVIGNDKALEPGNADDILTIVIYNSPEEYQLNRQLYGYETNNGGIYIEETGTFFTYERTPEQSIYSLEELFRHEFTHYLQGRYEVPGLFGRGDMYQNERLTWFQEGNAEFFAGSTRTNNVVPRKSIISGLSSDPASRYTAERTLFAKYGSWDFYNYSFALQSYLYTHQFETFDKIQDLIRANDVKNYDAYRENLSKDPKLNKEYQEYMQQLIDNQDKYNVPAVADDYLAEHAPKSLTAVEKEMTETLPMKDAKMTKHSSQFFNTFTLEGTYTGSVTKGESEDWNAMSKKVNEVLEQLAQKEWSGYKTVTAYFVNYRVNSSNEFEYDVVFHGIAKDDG
T2 sequence (P08254 100-272 limits assumed): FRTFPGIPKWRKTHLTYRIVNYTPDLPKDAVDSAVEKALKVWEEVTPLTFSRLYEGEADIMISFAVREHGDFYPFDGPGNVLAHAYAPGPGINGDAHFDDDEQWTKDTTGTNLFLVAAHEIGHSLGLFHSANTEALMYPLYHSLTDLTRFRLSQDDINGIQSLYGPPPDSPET
Chain of ColH-PD (Q46085 331-721 limits assumed): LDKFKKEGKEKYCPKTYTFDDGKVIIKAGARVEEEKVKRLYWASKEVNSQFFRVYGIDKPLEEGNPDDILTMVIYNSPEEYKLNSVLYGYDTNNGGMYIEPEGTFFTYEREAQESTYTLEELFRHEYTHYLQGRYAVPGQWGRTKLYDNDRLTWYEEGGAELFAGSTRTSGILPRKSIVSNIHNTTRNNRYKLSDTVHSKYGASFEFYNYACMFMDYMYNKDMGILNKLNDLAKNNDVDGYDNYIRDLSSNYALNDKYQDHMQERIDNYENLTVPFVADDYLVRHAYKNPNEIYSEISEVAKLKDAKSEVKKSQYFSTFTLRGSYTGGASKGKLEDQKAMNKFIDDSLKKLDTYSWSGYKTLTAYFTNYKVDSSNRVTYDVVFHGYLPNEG
Chain of TACE (ADAM-17) (P78536 215-824): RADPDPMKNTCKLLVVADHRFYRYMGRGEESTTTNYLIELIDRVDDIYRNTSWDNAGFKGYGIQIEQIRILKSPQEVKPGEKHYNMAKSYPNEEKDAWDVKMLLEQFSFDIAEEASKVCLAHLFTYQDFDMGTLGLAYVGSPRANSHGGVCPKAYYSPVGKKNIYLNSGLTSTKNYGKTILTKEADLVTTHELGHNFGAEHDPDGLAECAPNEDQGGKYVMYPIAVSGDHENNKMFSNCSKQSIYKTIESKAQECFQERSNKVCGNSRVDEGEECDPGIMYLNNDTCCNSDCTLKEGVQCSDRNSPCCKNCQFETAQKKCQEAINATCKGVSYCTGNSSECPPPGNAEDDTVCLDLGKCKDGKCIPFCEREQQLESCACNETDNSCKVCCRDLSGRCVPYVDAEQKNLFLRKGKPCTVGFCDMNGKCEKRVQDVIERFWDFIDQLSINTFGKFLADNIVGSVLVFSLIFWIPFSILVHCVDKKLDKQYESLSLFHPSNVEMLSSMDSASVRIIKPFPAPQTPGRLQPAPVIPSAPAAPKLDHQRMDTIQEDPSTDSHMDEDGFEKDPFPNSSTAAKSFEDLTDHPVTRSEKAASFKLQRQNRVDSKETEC
Chain of ColA-CU (Q81BJ6 93-764): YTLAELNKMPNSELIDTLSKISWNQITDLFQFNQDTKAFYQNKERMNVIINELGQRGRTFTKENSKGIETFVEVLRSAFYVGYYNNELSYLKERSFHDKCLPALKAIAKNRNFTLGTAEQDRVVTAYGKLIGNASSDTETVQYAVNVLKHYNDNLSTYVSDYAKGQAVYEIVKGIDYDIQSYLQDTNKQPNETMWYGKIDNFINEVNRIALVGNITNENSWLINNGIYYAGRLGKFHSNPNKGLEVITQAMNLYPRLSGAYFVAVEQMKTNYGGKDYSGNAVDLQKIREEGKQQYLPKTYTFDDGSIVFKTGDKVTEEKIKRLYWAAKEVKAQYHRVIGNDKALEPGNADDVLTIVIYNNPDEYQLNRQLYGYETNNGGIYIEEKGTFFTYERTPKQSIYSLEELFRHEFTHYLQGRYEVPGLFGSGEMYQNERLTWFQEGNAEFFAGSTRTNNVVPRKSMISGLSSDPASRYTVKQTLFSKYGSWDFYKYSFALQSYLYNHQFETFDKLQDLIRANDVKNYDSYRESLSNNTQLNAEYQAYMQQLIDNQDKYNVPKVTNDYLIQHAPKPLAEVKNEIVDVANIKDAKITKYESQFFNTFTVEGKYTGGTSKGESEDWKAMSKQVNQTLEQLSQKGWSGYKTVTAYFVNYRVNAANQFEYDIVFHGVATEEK
Chain of ColQ1-FL (B9J3S4 94-965 limits assumed): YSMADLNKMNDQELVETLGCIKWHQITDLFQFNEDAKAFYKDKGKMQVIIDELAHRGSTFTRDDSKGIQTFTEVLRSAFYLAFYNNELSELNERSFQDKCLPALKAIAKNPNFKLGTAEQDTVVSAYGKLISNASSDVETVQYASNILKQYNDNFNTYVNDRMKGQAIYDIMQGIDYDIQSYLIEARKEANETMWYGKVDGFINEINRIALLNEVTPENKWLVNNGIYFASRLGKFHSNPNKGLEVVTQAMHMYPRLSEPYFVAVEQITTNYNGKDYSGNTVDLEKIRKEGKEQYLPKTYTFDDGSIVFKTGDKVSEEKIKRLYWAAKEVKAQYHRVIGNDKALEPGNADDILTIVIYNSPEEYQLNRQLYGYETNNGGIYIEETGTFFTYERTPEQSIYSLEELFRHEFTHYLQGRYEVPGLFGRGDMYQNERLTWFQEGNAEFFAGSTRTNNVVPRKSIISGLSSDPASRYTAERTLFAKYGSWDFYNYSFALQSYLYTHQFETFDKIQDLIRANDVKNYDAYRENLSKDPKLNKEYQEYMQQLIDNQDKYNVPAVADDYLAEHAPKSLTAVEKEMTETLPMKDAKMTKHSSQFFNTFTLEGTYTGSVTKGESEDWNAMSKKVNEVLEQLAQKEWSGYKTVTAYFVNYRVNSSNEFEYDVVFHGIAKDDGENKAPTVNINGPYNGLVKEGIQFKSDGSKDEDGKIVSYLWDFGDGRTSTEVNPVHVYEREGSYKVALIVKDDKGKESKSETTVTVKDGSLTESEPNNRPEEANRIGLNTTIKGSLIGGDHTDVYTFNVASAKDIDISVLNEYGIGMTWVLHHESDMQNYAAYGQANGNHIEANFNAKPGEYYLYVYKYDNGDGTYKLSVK

Structure (SMILES): O=P(O)(O)c1nc2cc(Cl)c(Cl)cc2nc1P(=O)(O)O [Compound 13, (6,7-Dichloroquinoxaline-2,3-diyl)bis(phosphonic acid)]
- Increase in survival of infected larvae ([1]; 50 μM): 5%
- Increase in survival of infected larvae ([1]; 200 μM): about 35%
- Survival of infected larvae vs control without inhibitor [1]: ameliorated the survival of the larvae in a dose-dependent manner
- IC50 (in vitro [2]): > 200 µM
- inhibition at 100 µM (ColA-CU): 71 ± 4%
- IC50 (in vitro [3]): > 100 µM
- Concentration above which Col I chains were maintained (ColQ1-FL; 1 mg/mL Col I, 50 ng ColQ1-FL): above 3 μM
- IC50 (MMP-1): 53 ± 3 µM
- Concentration above which infected cells were sustained (attached, spindle shape) [4]: > 25 µM
- Concentration above which LDH release was significantly reduced [5]: above 50 μM
- IC50 (MMP-3): 33 ± 11 µM
- IC50 (TACE (ADAM-17)): > 100 µM
- MIC50 (B. cereus AH187): 200 µM (≈ 71.8 µg/mL)
- IC50 (ColQ1-CU): 5.2 ± 0.4 µM
- inhibition at 100 µM (ColQ1-CU; read-out: % Inhibition (ColQ1-CU) Mean): 98 ± 1%
- Concentration giving complete inhibition of gelatinolytic activity [6]: 200 µM
- inhibition at 100 µM (ColH-PD): 83 ± 9%
- TEER of infected MDCK II cells [7]: failed to sustain the TEER of the infected cells
- inhibition at 100 µM (ColG-CU): 68 ± 4%

Structure (SMILES): O=C(Nc1ccc(Cl)c(Cl)c1)c1ccc2nc(P(=O)(O)O)c(P(=O)(O)O)nc2c1 [Compound 14, (6-((3,4-Dichlorophenyl)carbamoyl)quinoxaline-2,3-diyl)bis(phosphonic acid)]
- Effect on survival of infected larvae ([1]; 25 μM): reduced effect
- Increase in survival of infected larvae ([1]; 100 μM): around 50%
- Survival of infected larvae vs control without inhibitor [1]: ameliorated the survival of the larvae in a dose-dependent manner
- IC50 (in vitro [2]): > 100 µM
- inhibition at 100 µM (ColA-CU): 82 ± 2%
- IC50 (in vitro [3]): > 100 µM
- Protection of Col I chains from cleavage by ColQ1-FL (ColQ1-FL; 12.5–1.5 μM tested): inhibited the collagenase activity at all concentrations tested
- IC50 (MMP-1): > 100 µM
- Concentration above which infected cells were sustained (attached, spindle shape) [4]: > 25 µM
- Concentration above which LDH release was significantly reduced [5]: above 50 μM
- IC50 (MMP-3): > 100 µM
- IC50 (TACE (ADAM-17)): > 100 µM
- MIC50 (B. cereus AH187): 100 µM (≈ 47.8 µg/mL)
- IC50 (ColQ1-CU): 16 ± 1 µM
- Concentration giving complete inhibition of gelatinolytic activity [6]: 100 µM
- inhibition at 100 µM (ColH-PD): 96 ± 2%
- TEER of infected MDCK II cells [7]: preserve the TEER value
- inhibition at 100 µM (ColG-CU): 72 ± 3%
